Results reported in patent US6214345A, “Lysosomal enzyme-cleavable antitumor drug conjugates” (Bristol-Myers Squibb Co., priority 1993, dated 2001).
Counter-ions that a name gives are not always drawn.

Columns and labels:
HCT116 colon line = assay: In vitro cytotoxicity assay (3H-thymidine uptake), HCT116; format: cell-based, human; details: antigen-negative HCT116, 2 hours exposure
Procedure: All dilutions were performed in quadruplicate.

[1] = tested on: L2987 human lung carcinoma xenografts; assay: Antitumor activity against established L2987 human tumor xenografts (Test VI); format: in vivo, mice
Procedure: The BR96-PEP-DOX conjugate (MR=4.41) was evaluated in vivo (Table 1) against L2987 human lung carcinoma xenografts. Therapy was initiated 14 days after tumor implant when the tumors were approximately 75 mm 3 in size.

Bovin spleen cathepsin B = target: T1, Bovin spleen cathepsin B (Bos taurus, UniProt P07688); assay: Cathepsin B unmasking of Z-Phe-Lys-PABC-DOX (Test III); format: biochemical, bovine; details: pH 5.0 acetate buffer, about 37° C., [Substrate]=40 μM, [Cathepsin B]=ca. 41 nM
T1 construct: purchased Sigma; host or cells: bovine spleen

[2] = Human plasma stability of Z-Phe-Lys-PABC-DOX (Test IV); format: in vitro ADME; details: freshly drawn human plasma
Procedure: Aliquots (50 μl) were periodically removed and diluted with cold methanol (100 μl). The samples were centrifuged and the resulting liquid injected into the HPLC (conditions as above). Enough DOX was added to a separate sample of plasma to give a theoretical release of 1% from the substrate. This was successfully detected using the same methods.

A2780 ovarian line = details: A2780, 2 hours exposure, 3H-thymidine uptake
From the text: (§1) L2987 is a lung adenocarcinoma line obtained from I. Hellstrom (Bristol-Myers Squibb, Seattle, Wash.). The HCT116 colorectal tumor line was obtained from M. Brattain (Baylor Inst., Tex.). A2780 is an ovarian carcinoma line obtained from K. Scanlon (National Cancer Institute).
(§2) Monolayer cultures of human carcinoma cells were harvested using trypsin-EDTA (GIBCO, Grand Island, N.Y.), and the cells counted and resuspended to 1×10^5 /ml in RPMI-1640 containing 10% heat inactivated fetal calf serum (RPMI-10% FCS). Cells (0.1 ml/well) were added to each well of 96 well microtiter plates and incubated overnight at about 37° C. in a humidified atmosphere of 5% CO2. Media was removed from the plates and serial dilutions of DOX or MAb-DOX conjugates added to the walls. All dilutions were performed in quadruplicate. Cells were exposed to DOX or MAb-DOX conjugates for about 2 hours at about 37° C. in a humidified atmosphere of 5% CO2. Plates were then centrifuged (200×g, 5 min.), the drug or conjugate removed, and the cells washed 3× with RPMI-10% FCS. The cells were cultured in RPMI-10% FCS (37° C., 5% CO2) for an additional 48 hours. At this time the cells were pulsed for about 2 hours with 1.0 uCi/well of ^3 H-thymidine (New England Nuclear, Boston, Mass.).

L2987 lung line = details: L2987, 2 hours exposure, 3H-thymidine uptake
From the text: as §1, §2

cathepsin B = cathepsin B (Bos taurus, UniProt P07688)
Procedure: Bovin spleen cathepsin B (Sigma, EC 3.4.22.1, MW ca. 40,000) (10 units) was dissolved in 1 ml pH 5.0 acetate buffer (25 mM acetate+1 mM EDTA), giving a solution roughly 13.7 M. 6 μl of the enzyme solution was incubated with 12 μl of an activating solution (30 mM dithiothreitol and 15 mM EDTA) for about 15 minutes at room temperature. To this was added 2 ml of pH 5.0 acetate buffer (25 mM acetate with 1 mM EDTA) which had been incubated at about 37° C., followed by 8 μl of a 10 mM solution of Z-Phe-Lys-PABC-DOX in methanol ([Substrate]=40 μM, [Cathepsin B]=ca. 41 nM). The mixture was incubated at about 37° C., and aliquots were periodically removed and injected into the HPLC (C-18 column; 80:20 methanol/pH 2.8 triethylammonium formate (50 mM) buffer; 1 ml/min.; 495 mn detection wavelength).

[3] = 0.31 mg/kg DOX, 20 mg/kg BR96 per injection
[4] = 0.63 mg/kg DOX, 39 mg/kg BR96 per injection
[5] = 1.25 mg/kg DOX, 78 mg/kg BR96 per injection
[6] = 2.5 mg/kg DOX, 156 mg/kg BR96 per injection
[7] = 5 mg/kg DOX, 312 mg/kg BR96 per injection
[8] = 10 mg/kg DOX, 625 mg/kg BR96 per injection
[9] = 20 mg/kg DOX, 1250 mg/kg BR96 per injection

## COc1cccc2c1C(=O)c1c(O)c3c(c(O)c1C2=O)C[C@@](O)(C(=O)CO)C[C@@H]3O[C@H]1C[C@H](N)[C@H](O)[C@H](C)O1 [DOX, Doxorubicin, reference compound]
HCT116 colon line
  in vitro activity: sensitive
[1]; DOX 6 mg/kg/injection
  % Tumor Regressions Complete: 0%
  % Tumor Regressions Partial: 0%
  Log Cell Kill: 1.5
[1]; DOX 8 mg/kg/injection
  % Tumor Regressions Complete: 10%
  % Tumor Regressions Partial: 0%
  Log Cell Kill: 2.4

## COc1cccc2c1C(=O)c1c(O)c3c(c(O)c1C2=O)C[C@@](O)(C(=O)CO)C[C@@H]3O[C@H]1C[C@H](NC(=O)OCc2ccc(NC(=O)[C@H](CCCCN)NC(=O)[C@H](Cc3ccccc3)NC(=O)OCc3ccccc3)cc2)[C@H](O)[C@H](C)O1 [Z-Phe-Lys-PABC-DOX, Z-Phe-Lys-PABC-DOX-HCl]
Bovin spleen cathepsin B
  half-life of release of free DOX: 7 to 9 min
[2]; over 7 hours
  free DOX detected in plasma: No free DOX was detected
[2]; no release over 7 hours
  half-life: > 350 h

## BR96-succinimidocaproyl-phenylalanine-lysine-p-aminovenzyl-carbamoyloxy-doxorubicin [BR96-DOX]
A2780 ovarian line
  in vitro potency, fold less potent than unconjugated DOX: approximately 50 fold
L2987 lung line
  in vitro potency compared with unconjugated DOX: equivalent to that of unconjugated DOX
HCT116 colon line
  in vitro activity: not active
[1]; [3]
  % Tumor Regressions Complete: 0%
  % Tumor Regressions Partial: 0%
  Log Cell Kill: 0.2
[1]; [4]
  % Tumor Regressions Complete: 0%
  % Tumor Regressions Partial: 0%
  Log Cell Kill: 0.3
[1]; [5]
  % Tumor Regressions Complete: 10%
  % Tumor Regressions Partial: 10%
  Log Cell Kill: 2.4
[1]; [6]
  % Tumor Regressions Complete: 90%
  % Tumor Regressions Partial: 10%
  Log Cell Kill: > 7
[1]; [7]
  % Tumor Regressions Complete: 100%
  % Tumor Regressions Partial: 0%
  Log Cell Kill: > 7
[1]; [8]
  % Tumor Regressions Complete: 89%
  % Tumor Regressions Partial: 11%
  Log Cell Kill: > 7
[1]; [9]
  % Tumor Regressions Complete: 100%
  % Tumor Regressions Partial: 0%
  Log Cell Kill: > 7
[1]; doses of 1.25-20 mg/kg equivalent DOX/injection
  activity and tolerability in vivo: active and tolerated
[1]; doses of ≥2.5 mg/kg equivalent DOX/injection
  activity compared with optimized DOX: significantly more active than optimized DOX
Cathepsin B; cathepsin B, pH 5.3, about 37° C., HPLC
  half-life of release of free DOX: about 3 hours
Cathepsin B; pH 5.3 (37° C.)
  t1/2 of DOX release by cathepsin B: 3.0 h
